In general, IC50 refers to the concentration that inhibits the measured activity by half.

Results on 19 compounds are retold here after patent US9296734B2 (AMGEN INC., priority 2013, dated 2016).

Read-outs that look alike come from different tables or passages of the source. Bounds are passed on as bounds.

The target in one assay is Cathepsin D (Cat D) (Homo sapiens (Human), UniProt P07339). Put plainly: In vitro enzymatic Cathepsin D (Cat D) FRET assay. Format: biochemical. The note with it: read-out: CatD IC50. In a few lines:
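CHO-expressed recombinant Cat D cleaves a fluorophore/quencher FRET peptide (20 nM) in 0.05 M citrate pH 3.5, 5 mM CHAPS, 10% DMSO final, over 1 h. Tris addition neutralizes pH to stop the reaction; fluorescence read at excitation 500 nm, emission 580 nm.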

In assay [1] the target is Beta Secretase enzyme (BACE) (Homo sapiens (Human), UniProt P56817). Put plainly: In vitro enzymatic BACE FRET assay. Format: biochemical. The note with it: read-out: BACE 1 FRET assay IC50. In a few lines:
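Reactions ran in 0.05 M acetate pH 4.2 with 10% DMSO final and 100 uM genapol. They were started with 50 nM peptide FRET substrate (fluorophore and quencher flanking the BACE cleavage site) and incubated one hour. Tris addition raised the pH to neutral to stop the reaction before fluorescence reading.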

Assay [2] concerns Aβ40 in conditioned medium of cells stably expressing Amyloid Precursor Protein (APP). Put plainly: In vitro BACE cell-based assay (Aβ40 sandwich ELISA). The note with it: Homo sapiens. A digest of the protocol: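 Secreted Aβ40 was quantified by sandwich ELISA (pAb40 capture, biotinylated 6E10 detection, Europium time-resolved fluorescence). IC50 derived from percent inhibition versus concentration.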
On the technique in general: In an ELISA, binding on a coated surface is turned into a signal by an enzyme label.

Where [3] appears, read: average IC50, cathepsin D enzyme assay.
The mark [4] stands for this setting: average IC50, BACE enzyme assay.
[5] abbreviates: HEK293, average IC50, HEK cell assay, read-out: HEK cell assay IC50.
Where [6] appears, read: HEK293, HEK cells, average, read-out: HEK cell assay IC50.
The mark [7] stands for this setting: HEK293, read-out: HEK cell assay IC50.

Beta Secretase enzyme (BACE), sequence (P56817 46-501): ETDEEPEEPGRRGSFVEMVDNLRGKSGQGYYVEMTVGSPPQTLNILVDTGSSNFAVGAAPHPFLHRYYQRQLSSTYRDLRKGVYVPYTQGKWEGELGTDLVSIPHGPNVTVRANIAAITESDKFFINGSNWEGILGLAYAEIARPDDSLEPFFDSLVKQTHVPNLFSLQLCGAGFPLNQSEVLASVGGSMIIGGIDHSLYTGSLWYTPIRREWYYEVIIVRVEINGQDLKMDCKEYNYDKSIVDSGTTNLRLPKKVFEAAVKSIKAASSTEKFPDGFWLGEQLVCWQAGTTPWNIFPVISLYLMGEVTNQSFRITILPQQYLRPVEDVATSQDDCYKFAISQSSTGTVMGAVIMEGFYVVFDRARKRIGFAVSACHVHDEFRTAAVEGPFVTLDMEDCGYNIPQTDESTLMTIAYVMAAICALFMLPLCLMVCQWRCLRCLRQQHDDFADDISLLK
Cathepsin D (Cat D), sequence (P07339 65-412, species assumed): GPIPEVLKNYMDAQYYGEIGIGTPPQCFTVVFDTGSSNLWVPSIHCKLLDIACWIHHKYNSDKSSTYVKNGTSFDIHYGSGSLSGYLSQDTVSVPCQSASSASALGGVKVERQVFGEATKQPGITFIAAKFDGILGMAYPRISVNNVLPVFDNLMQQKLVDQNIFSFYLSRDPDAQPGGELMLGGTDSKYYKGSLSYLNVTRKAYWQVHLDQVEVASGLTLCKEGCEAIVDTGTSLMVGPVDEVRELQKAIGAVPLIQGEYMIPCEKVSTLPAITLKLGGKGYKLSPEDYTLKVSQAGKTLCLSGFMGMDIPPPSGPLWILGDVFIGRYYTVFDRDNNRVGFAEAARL

With `C[C@@]1(c2cc(Nc3nccc4cc(Cl)cnc34)cc(F)c2F)C[C@@H](C(F)(F)F)OC(N)=N1` [Example 176, (4S,6S)-4-(5-((3-chloro-1,7-naphthyridin-8-yl)amino)-2,3-difluorophenyl)-4-methyl-6-(trifluoromethyl)-5,6-dihydro-4H-1,3-oxazin-2-amine], the IC50 on Cathepsin D (Cat D) (setting [3]) stood at 104 µM; in assay [1] (setting [4]) it was 0.021 µM; in assay [2] (setting [5]) it was 0.102 µM.

Turning to `C[C@@]1(c2cc(Nc3ncc(F)c4cc(C#N)cnc34)cc(F)c2F)C[C@@H](C(F)(F)F)OC(N)=N1` [Example 177, 8-((3-((4S,6S)-2-amino-4-methyl-6-(trifluoromethyl)-5,6-dihydro-4H-1,3-oxazin-4-yl)-4,5-difluorophenyl)amino)-5-fluoro-1,7-naphthyridine-3-carbonitrile], the figures for the IC50 (at Cathepsin D (Cat D) (setting [3]); in assay [1] (setting [4]); in assay [2] (setting [5])) were over 4.94 µM, 0.03 µM and 0.275 µM, respectively.

On to `C[C@@]1(c2cc(Nc3nccc4cc(C#N)cnc34)cc(F)c2F)C[C@@H](C(F)(F)F)OC(N)=N1` [Example 180, 8-((3-((4S,6S)-2-amino-4-methyl-6-(trifluoromethyl)-5,6-dihydro-4H-1,3-oxazin-4-yl)-4,5-difluorophenyl)amino)-1,7-naphthyridine-3-carbonitrile], for which the IC50 on Cathepsin D (Cat D) (setting [3]) is over 400 µM; in assay [1] (setting [4]), 0.014 µM; in assay [2] (setting [5]), 0.036 µM.

Turning to `NC1=N[C@](CF)(c2cc(C(=O)NC3CC3)ccc2F)C[C@@H](C(F)(F)F)O1` [Example 182, 3-((4S,6S)-2-amino-4-(fluoromethyl)-6-(trifluoromethyl)-5,6-dihydro-4H-1,3-oxazin-4-yl)-N-cyclopropyl-4-fluorobenzamide], the figures for the IC50 (on Cathepsin D (Cat D) (setting [3]); in assay [1] (setting [4]); in assay [2] (setting [5])) were 3490 µM, 11.4 µM and over 15.6 µM, respectively.

With `C[C@@]1(c2cc(NC(=O)c3cnc(OCC(F)(F)F)cn3)cc(F)c2F)C[C@@H](C(F)(F)F)OC(N)=N1` [Example 186, N-(3-((4S,6S)-2-amino-4-methyl-6-(trifluoromethyl)-5,6-dihydro-4H-1,3-oxazin-4-yl)-4,5-difluorophenyl)-5-(2,2,2-trifluoroethoxy)pyrazine-2-carboxamide], the IC50 on Cathepsin D (Cat D) (average) is over 400 µM; in assay [1] (average) it was 0.021 µM; in assay [2] (setting [6]) it was 0.015 µM.

As to `C[C@@]1(c2cc(NC(=O)c3ncc(C(F)(F)F)cc3Cl)cc(F)c2F)C[C@@H](C(F)(F)F)OC(N)=N1` [Example 187, N-(3-((4S,6S)-2-amino-4-methyl-6-(trifluoromethyl)-5,6-dihydro-4H-1,3-oxazin-4-yl)-4,5-difluorophenyl)-3-chloro-5-(trifluoromethyl)picolinamide], the values for the concentration for half-maximal inhibition (IC50) (at Cathepsin D (Cat D) (average); in assay [1] (average); in assay [2] (setting [6])) were over 400 µM, 0.075 µM and 0.015 µM, respectively.

In the case of `CC#CCOc1ccc(C(=O)Nc2cc(F)c(F)c([C@]3(C)C[C@@H](C(F)(F)F)OC(N)=N3)c2)nc1` [Example 189, N-(3-((4S,6S)-2-amino-4-methyl-6-(trifluoromethyl)-5,6-dihydro-4H-1,3-oxazin-4-yl)-4,5-difluorophenyl)-5-(but-2-yn-1-yloxy)picolinamide], the IC50 is 784 µM at Cathepsin D (Cat D) (average), 0.003 µM in assay [1] (average) and 0.003 µM in assay [2] (setting [6]).

In the case of `C#CCOc1cnc(C(=O)Nc2cc(F)c(F)c([C@]3(C)C[C@@H](C(F)(F)F)OC(N)=N3)c2)cn1` [Example 190, N-(3-((4S,6S)-2-amino-4-methyl-6-(trifluoromethyl)-5,6-dihydro-4H-1,3-oxazin-4-yl)-4,5-difluorophenyl)-5-(prop-2-yn-1-yloxy)pyrazine-2-carboxamide], the IC50 on Cathepsin D (Cat D) (setting [3]) was over 400 µM; on Cathepsin D (Cat D) (average), 505 µM; in assay [1] (setting [4]) it was over 40 µM; in assay [1] (average), 0.002 µM; in assay [2] (setting [6]), 0.002 µM; in assay [2] (setting [5]) it was over 15.6 µM.

`Cc1cc(OCC2CC2)cnc1C(=O)Nc1cc(F)c(F)c([C@]2(C)C[C@@H](C(F)(F)F)OC(N)=N2)c1` [Example 191, N-(3-((4S,6S)-2-amino-4-methyl-6-(trifluoromethyl)-5,6-dihydro-4H-1,3-oxazin-4-yl)-4,5-difluorophenyl)-5-(cyclopropylmethoxy)-3-methylpicolinamide]: the half-inhibitory concentration (IC50) on Cathepsin D (Cat D) (average) is 511 µM; in assay [1] (average) it was 0.097 µM; in assay [2] (setting [6]), 0.549 µM.

As to `C[C@@]1(c2cc(NC(=O)c3cnc(C(F)F)cn3)cc(F)c2F)C[C@@H](C(F)(F)F)OC(N)=N1` [Example 193, N-(3-((4S,6S)-2-amino-4-methyl-6-(trifluoromethyl)-5,6-dihydro-4H-1,3-oxazin-4-yl)-4,5-difluorophenyl)-5-(difluoromethyl)pyrazine-2-carboxamide], the 50% inhibitory concentration (IC50) at Cathepsin D (Cat D) (average IC50) is over 400 µM; on Cathepsin D (Cat D) (average), 1270 µM; in assay [1] (average IC50), 0.0461 µM; in assay [1] (average), 0.075 µM; in assay [2] (setting [6]), 0.018 µM; in assay [2] (HEK293, average IC50, HEK cells, read-out: HEK cell assay IC50), 0.0213 µM.

As to `COc1cc(Cl)cnc1C(=O)Nc1cc(F)c(F)c([C@]2(C)C[C@@H](C(F)(F)F)OC(N)=N2)c1` [Example 195, N-(3-((4S,6S)-2-amino-4-methyl-6-(trifluoromethyl)-5,6-dihydro-4H-1,3-oxazin-4-yl)-4,5-difluorophenyl)-5-chloro-3-methoxypicolinamide], the IC50 on Cathepsin D (Cat D) (average) is over 400 µM; in assay [1] (average) it was 0.071 µM; in assay [2] (setting [6]), 0.011 µM.

Regarding `C[C@@]1(c2cc(NC(=O)c3nn(C(F)F)cc3Cl)cc(F)c2F)C[C@@H](C(F)(F)F)OC(N)=N1` [Example 196, N-(3-((4S,6S)-2-amino-4-methyl-6-(trifluoromethyl)-5,6-dihydro-4H-1,3-oxazin-4-yl)-4,5-difluorophenyl)-4-chloro-1-(difluoromethyl)-1H-pyrazole-3-carboxamide], the concentration for half-maximal inhibition (IC50) was determined as 628 µM on Cathepsin D (Cat D) (average), 0.011 µM in assay [1] (average) and 0.007 µM in assay [2] (setting [6]).

On to `COCc1cc(Cl)cnc1C(=O)Nc1cc(F)c(F)c([C@]2(C)C[C@@H](C(F)(F)F)OC(N)=N2)c1` [Example 199, N-(3-((4S,6S)-2-amino-4-methyl-6-(trifluoromethyl)-5,6-dihydro-4H-1,3-oxazin-4-yl)-4,5-difluorophenyl)-5-chloro-3-(methoxymethyl)picolinamide], for which the IC50 at Cathepsin D (Cat D) (average) was 1710 µM; in assay [1] (average), 0.016 µM; in assay [2] (setting [6]) it was 0.013 µM.

As for `C[C@@]1(c2cc(NC(=O)c3cnc(OCc4ncco4)cn3)cc(F)c2F)C[C@@H](C(F)(F)F)OC(N)=N1` [Example 204, N-(3-((4S,6S)-2-amino-4-methyl-6-(trifluoromethyl)-5,6-dihydro-4H-1,3-oxazin-4-yl)-4,5-difluorophenyl)-5-(oxazol-2-ylmethoxy)pyrazine-2-carboxamide], the concentration for half-maximal inhibition (IC50) on Cathepsin D (Cat D) (average) is 1040 µM; in assay [1] (average), 0.006 µM; in assay [2] (setting [7]), 0.003 µM.

As for `C[C@@]1(c2cc(NC(=O)c3ncc(C#N)cc3F)cc(F)c2F)C[C@@H](C(F)(F)F)OC(N)=N1` [Example 205, N-(3-((4S,6S)-2-amino-4-methyl-6-(trifluoromethyl)-5,6-dihydro-4H-1,3-oxazin-4-yl)-4,5-difluorophenyl)-5-cyano-3-fluoropicolinamide], the half-maximal inhibitory concentration (IC50) at Cathepsin D (Cat D) (average) was over 400 µM; in assay [1] (average) it was 0.039 µM; in assay [2] (setting [6]), 0.01 µM.

As for `C[C@@]1(c2cc(NC(=O)c3ccc(C#N)cn3)cc(Cl)c2F)C[C@@H](C(F)(F)F)OC(N)=N1` [Example 206, N-(3-((4S,6S)-2-amino-4-methyl-6-(trifluoromethyl)-5,6-dihydro-4H-1,3-oxazin-4-yl)-5-chloro-4-fluorophenyl)-5-cyanopicolinamide], the values for the half-inhibitory concentration (IC50) (on Cathepsin D (Cat D) (average); in assay [1] (average); in assay [2] (setting [6])) were 488 µM, 0.023 µM and 0.012 µM, respectively.

Turning to `COc1cnc(C(=O)Nc2cc(Cl)c(F)c([C@]3(C)C[C@@H](C(F)(F)F)OC(N)=N3)c2)cn1` [Example 208, N-(3-((4S,6S)-2-amino-4-methyl-6-(trifluoromethyl)-5,6-dihydro-4H-1,3-oxazin-4-yl)-5-chloro-4-fluorophenyl)-5-methoxypyrazine-2-carboxamide], the IC50 at Cathepsin D (Cat D) (average) was determined as 394 µM; in assay [1] (average) it was 0.012 µM; in assay [2] (setting [7]) it was 0.003 µM.

As to `COc1ccc(C(=O)Nc2cc(Cl)c(F)c([C@]3(C)C[C@@H](C(F)(F)F)OC(N)=N3)c2)nc1` [Example 209, N-(3-((4S,6S)-2-amino-4-methyl-6-(trifluoromethyl)-5,6-dihydro-4H-1,3-oxazin-4-yl)-5-chloro-4-fluorophenyl)-5-methoxypicolinamide], the 50% inhibitory concentration (IC50) on Cathepsin D (Cat D) (average) worked out at 622 µM; in assay [1] (average), 0.015 µM; in assay [2] (setting [6]), 0.035 µM.

Turning to `C[C@@]1(c2cc(NC(=O)c3cnc(C(F)F)cn3)cc(Cl)c2F)C[C@@H](C(F)(F)F)OC(N)=N1` [Example 211, N-(3-((4S,6S)-2-amino-4-methyl-6-(trifluoromethyl)-5,6-dihydro-4H-1,3-oxazin-4-yl)-5-chloro-4-fluorophenyl)-5-(difluoromethyl)pyrazine-2-carboxamide], the IC50 on Cathepsin D (Cat D) (average) was 604 µM; in assay [1] (average) it was 0.062 µM; in assay [2] (setting [7]), 0.047 µM.
